Results from patent US12201608B2, “Methods for treating Parkinson's disease by administering resiniferatoxin” (Sorrento Therapeutics, Inc., priority 2018, dated 2025).
Entries after “also recorded” stand apart in the source; their conditions may differ.

Legend:
[1] = Pilot tolerability study of intrathecal RTX infusion; assay type: in vivo, C57Bl/6J mice
Procedure: The purpose of this study was to investigate the effects of single intrathecal administration of RTX on the AAV-A53T mouse model of PD-like pathology. Prior to this study start, a pilot tolerability study was conducted in which 16 male and 16 female C57Bl/6J mice were infused with RTX at two doses (either 0.04 μg or 0.125 μg) and followed up for 24 hours thereafter to observe any possible adverse effects of the treatment.
Of the 32 total mice used in the pilot study arm, in total 4 mice died during the 24 hour monitoring period after intrathecal infusion of RTX. Two females treated with 0.125 μg dose were found dead in cage within 4-24 hours after infusion due to unknown reason.

[2] = tested on: AAV-A53T mouse model of Parkinson's Disease-like (PD) pathology; experiment: Fine motor kinematic gait analysis 7 weeks after AAV infusion; assay type: in vivo, C57Bl/6J male mice; details: for overall gait analysis score: vs AAV1/2-A53T Vehicle
Procedure: (§1) For this study, a total of 110 male C57Bl/6J mice two months of age were infused with either AAV-A53T (90 mice) or AAV-Null (20 mice) into substantia nigra unilaterally to induce PD-like pathology or to serve as sham controls, respectively. Mice infused with AAV-Null (empty) vector (“sham-infused” mice) were used in order to control for the effect of the viral infusion. After 7 or 14 days of AAV-A53T mediated disease model induction, the mice were treated with RTX (0.04 μg or 0.125 μg) (5 μL volume, prepared from a 25 μg/ml RTX solution containing Polysorbate 80 at 0.03% w/v, dextrose at 0.05% w/v, Phosphate Buffer at 30 mM, and NaCl 0.54% w/v, pH 7.2, and diluted in saline as needed) by single intrathecal infusion at lumbar spinal cord area. One AAV-Null and AAV-A53T infused group per each time point were treated with vehicle instead of RTX.
The mice were then treated with RTX or vehicle by intrathecal infusion 7 or 14 days after AAV infusion. The mice were assigned to treatment groups as follows: • Group 1: 10 male mice sham-infused with AAV-null, and administered vehicle at D7. • Group 2: 15 male mice infused with AAV-A53T, and administered vehicle at D7. • Group 3: 15 male mice infused with AAV-A53T, and administered 0.04 μg of RTX at D7. • Group 4: 15 male mice infused with AAV-A53T, and administered 0.125 μg of RTX at D7. • Group 5: 10 male mice sham-infused with AAV-null, and administered vehicle at D14. • Group 6: 15 male mice infused with AAV-A53T, and administered vehicle at D14. • Group 7: 15 male mice infused with AAV-A53T, and administered 0.04 μg of RTX at D14. • Group 8: 15 male mice infused with AAV-A53T, and administered 0.125 μg of RTX at D14.
The fine motor skills of the mice were evaluated 7 weeks post infusion (MotoRater, TSE Systems, Homburg, Germany) using walking mode. On the day of testing the mice were marked in appropriate points of body, such as joints of limbs and parts of tail to ease the data analysis process. The movement data was captured using a high-speed camera (300 frames/second) from three different dimensions, from below and both sides. Different gait patterns and movements were analyzed using a custom-made automated analysis system. The analyzed parameters include: 1) general gait pattern parameters (stride time and speed, step width, stance and swing time during a stride, interlimb coordination), 2) body posture and balance (toe clearance, iliac crest and hip height, hind limb protraction and retraction, tail position and movement), and 3) fine motor skills (swing speed during a stride, jerk metric during swing phase, angle ranges and deviations of different joints, vertical and horizontal head movement).
The gait parameters always have several (and complex) inter-correlations. For example, a shorter stride duration and longer step lengths lead to higher speed. Different “gait features”, which are manifested in sets of highly correlating parameters, can be identified using Principal Component Analysis (PCA). Principal Component Analysis is a statistical tool to compact the information in a multivariate data set, reveal correlations between original variables, and ultimately, create a small set of new and sensitive uncorrelated parameters, the principal components (PC).
PCA is a linear transformation based on principal component coefficients and eigenvectors. The transformed, new, uncorrelated variables are called the PC scores. The first principal component (PC) corresponds to such linear combination of data which has the largest possible variance. The second PC has again the largest possible variance of what is left when the proportion of the first PC is discarded, and so on for the rest of the PCs. The eigen vectors also reveal information about the internal structure of the data, i.e., mutually correlated parameters. Each PC score represent combined information of all the parameters which are emphasized in the corresponding PC. […]

[3] = Adverse effects and mortality monitoring in the main AAV-A53T study; assay type: in vivo, C57Bl/6J male mice
Procedure: as §1
The mice were then treated with RTX or vehicle by intrathecal infusion 7 or 14 days after AAV infusion. […]
Animals were monitored daily by laboratory personnel. […]

[4] = D7 both doses, vs AAV-A53T Vehicle, p<0.05 unpaired t-test
[5] = D7 high dose, vs AAV-A53T Vehicle, p<0.05 unpaired t-test

## C=C(C)[C@]12C[C@@H](C)[C@@]34O[C@](Cc5ccccc5)(O[C@@H]1[C@@H]3C=C(COC(=O)Cc1ccc(O)c(OC)c1)C[C@]1(O)C(=O)C(C)=C[C@@H]41)O2 [RTX, Resiniferatoxin]
[1]; 0.04 μg or 0.125 μg, 24 hour follow-up
  adverse effects in the rest of the mice: No significant adverse effects
[1]; 0.125 μg dose, unknown reason
  found dead in cage within 4-24 hours after infusion: Two females
[1]; 0.125 μg dosing group
  died immediately after infusion: one female and one male mouse
[1]; 32 mice total (16 male, 16 female), RTX 0.04 μg or 0.125 μg intrathecal
  mice died during the 24 hour monitoring period after intrathecal infusion: 4 mice
[2]; [4]
  diagonal gait: significantly recovered
  hip ROM: significantly recovered
[2]; [5]
  hind limb stance time: significantly recovered
  hip ROM deviation: significantly recovered
  homolateral and homologous gait: significantly recovered
  minimum knee angle: significantly recovered
  single and double support: significantly recovered
  stride time: significantly recovered
  support diagonal: significantly recovered
  support three: significantly recovered
[2]; D14 both doses, vs AAV-A53T Vehicle, p<0.05 unpaired t-test
  head rotation: significantly recovered
[2]; D14 high dose, vs AAV-A53T Vehicle, p<0.05 unpaired t-test
  hip ROM: significantly recovered
[2]; RTX 0.04 μg at D7, Dunnett's test p=0.0063
  overall gait analysis score: significant treatment effect; also recorded: significantly improved
[2]; RTX 0.125 μg at D7, Dunnett's test p=0.0011
  overall gait analysis score: significant treatment effect; also recorded: significantly improved
[2]; both RTX doses at D14, p>0.05 one-way ANOVA
  overall gait analysis score: statistically non-significant trend towards the respective AAV-Null group; also recorded: statistically non-significant trending effect; also recorded: not statistically significant; also recorded: trend towards the AAV1/2-Null group
[2]; early RTX treatment (D7), analyzed 7 weeks after AAV infusion
  recovery of motor functions / motor skills: significant rescuing effect; also recorded: dose-dependent recovery of motor functions
[3]; 6 mice out of 110 lost including vehicle-treated mice, attributed to surgical procedure and anesthesia
  mortalities, distribution between groups: evenly spread between the vehicle and both RTX low and high dose groups
[3]; low or high dose (0.04 μg or 0.125 μg), D7 or D14
  adverse effects of intrathecal RTX administration: No significant adverse effects
